For experiment [1], the target named is human 5-HT3 serotonin receptors (Homo sapiens (Human), UniProt P46098). Kind of experiment: [3H]BRL 43694 competition binding. The conditions noted are these: CHO cell membranes, [3H]BRL 43694, Cheng Prusoff; read-out: h-5HT3 Ki.
For experiment [2], the target named is human α7 nAChRs transiently expressed in Xenopus laevis oocytes (Homo sapiens (Human), UniProt P36544). Kind of experiment: Oocyte electrophysiology screen (TEVC). The settings on record: 0.01 mM test compound, peak current relative to 0.2 mM ACh. It is filed as cell-based. Put shortly: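 Oocytes expressing human α7 were clamped at −80 mV by TEVC. After a 0.2 mM ACh control pulse, test compound was applied at 0.01 mM for 30 s. Agonist response is peak current as % of the ACh response, in triplicate.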

Counter-ions that a name gives are not always drawn.

Chain of human α7 nAChRs transiently expressed in Xenopus laevis oocytes (P36544 23-502 limits assumed): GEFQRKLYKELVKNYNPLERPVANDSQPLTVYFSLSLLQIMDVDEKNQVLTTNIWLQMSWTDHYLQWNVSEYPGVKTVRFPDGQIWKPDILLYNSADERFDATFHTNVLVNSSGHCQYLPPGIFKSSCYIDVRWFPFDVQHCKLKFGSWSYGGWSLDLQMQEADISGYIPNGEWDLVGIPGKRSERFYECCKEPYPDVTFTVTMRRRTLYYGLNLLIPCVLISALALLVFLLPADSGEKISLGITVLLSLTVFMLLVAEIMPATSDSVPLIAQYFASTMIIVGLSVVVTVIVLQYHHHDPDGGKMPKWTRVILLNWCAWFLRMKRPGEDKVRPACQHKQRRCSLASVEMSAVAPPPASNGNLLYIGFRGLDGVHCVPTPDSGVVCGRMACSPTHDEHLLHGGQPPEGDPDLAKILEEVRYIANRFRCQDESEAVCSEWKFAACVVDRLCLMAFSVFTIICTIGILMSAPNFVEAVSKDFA
Chain of human 5-HT3 serotonin receptors (P46098 24-478): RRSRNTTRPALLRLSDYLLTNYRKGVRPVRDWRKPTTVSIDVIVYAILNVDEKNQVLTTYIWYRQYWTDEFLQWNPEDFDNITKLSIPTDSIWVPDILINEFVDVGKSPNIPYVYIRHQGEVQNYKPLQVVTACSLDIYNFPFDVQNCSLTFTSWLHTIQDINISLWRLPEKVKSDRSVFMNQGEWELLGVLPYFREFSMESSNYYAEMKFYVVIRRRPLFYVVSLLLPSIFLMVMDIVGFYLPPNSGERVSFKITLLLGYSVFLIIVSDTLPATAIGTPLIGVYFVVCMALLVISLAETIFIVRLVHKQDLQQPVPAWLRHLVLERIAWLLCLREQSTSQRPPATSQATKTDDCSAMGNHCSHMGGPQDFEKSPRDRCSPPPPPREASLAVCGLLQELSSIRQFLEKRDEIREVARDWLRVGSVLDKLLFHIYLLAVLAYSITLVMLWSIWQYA

As for `CC1(C)[C@H](NC(=O)c2cc3ccc(Cl)c(C(F)(F)F)c3s2)C2CCN1CC2` [(R)-111, (R)-6-chloro-N-(2,2-dimethylquinuclidin-3-yl)-7-(trifluoromethyl)benzo[b]thiophene-2-carboxamide hydrochloride], in experiment [1], the inhibitory constant (Ki) is > 10000 nM.

Take `Cc1ccc2cc(C(=O)N[C@@H]3C4CCN(CC4)C3(C)C)sc2c1C(F)(F)F` [(R)-113, (R)—N-(2,2-dimethylquinuclidin-3-yl)-6-methyl-7-(trifluoromethyl)benzo[b]thiophene-2-carboxamide hydrochloride]: in experiment [1], the inhibitory constant (Ki) was > 10000 nM. Still for that read-out and setting: the value for `CC1(C)[C@H](NC(=O)c2cc3cccc(C4CC4)c3s2)C2CCN1CC2` [(R)-118, (R)-7-cyclopropyl-N-(2,2-dimethylquinuclidin-3-yl)benzo[b]thiophene-2-carboxamide hydrochloride] was 230 nM; that for `CC1(C)[C@H](NC(=O)c2cc3cc(F)c(Cl)cc3s2)C2CCN1CC2` [(R)-123, (R)-6-chloro-N-(2,2-dimethylquinuclidin-3-yl)-5-fluorobenzo[b]thiophene-2-carboxamide hydrochloride] was > 10000 nM. Still for that read-out and setting: the value for `CC1(C)[C@H](NC(=O)c2cc3cc(F)c(Cl)c(F)c3s2)C2CCN1CC2` [(R)-125, (R)-6-chloro-N-(2,2-dimethylquinuclidin-3-yl)-5,7-difluorobenzo[b]thiophene-2-carboxamide hydrochloride] was > 10000 nM; that for `Cc1cccc2cc(C(=O)N[C@@H]3C4CCN(CC4)C3(C)C)sc12` [(R)-126, (R)—N-(2,2-dimethylquinuclidin-3-yl)-7-methylbenzo[b]thiophene-2-carboxamide hydrochloride] was 170 nM. With `CC1(C)[C@H](NC(=O)c2cc3cccc(CC(F)(F)F)c3s2)C2CCN1CC2` [(R)-127, (R)—N-(2,2-dimethylquinuclidin-3-yl)-7-(2,2,2-trifluoroethyl)benzo[b]thiophene-2-carboxamide hydrochloride], in experiment [1], the Ki amounted to 1100 nM.

Take `CC1(C)[C@H](NC(=O)c2cc3cccc(-c4nccs4)c3s2)C2CCN1CC2` [(R)-129, (R)—N-(2,2-dimethylquinuclidin-3-yl)-7-(thiazol-2-yl)benzo[b]thiophene-2-carboxamide hydrochloride]: the Ki in experiment [1] is 440 nM. Turning to `CC1(C)[C@H](NC(=O)c2cc3cccc(-c4ccccc4)c3s2)C2CCN1CC2` [(R)-132, (R)—N-(2,2-dimethylquinuclidin-3-yl)-7-phenylbenzo[b]thiophene-2-carboxamide hydrochloride], the inhibition constant (Ki) in experiment [1] amounted to 100 nM. On the same count and under the same terms, the value for `CC1(c2cccc3cc(C(=O)N[C@@H]4C5CCN(CC5)C4(C)C)sc23)CC1` [(R)-133, (R)—N-(2,2-dimethylquinuclidin-3-yl)-7-(1-methylcyclopropyl)benzo[b]thiophene-2-carboxamide hydrochloride] was 400 nM; that for `Cc1ccc2cc(C(=O)N[C@@H]3C4CCN(CC4)C3(C)C)sc2c1C1CC1` [(R)-140, (R)-7-cyclopropyl-N-(2,2-dimethylquinuclidin-3-yl)-6-methylbenzo[b]thiophene-2-carboxamide hydrochloride] was 22000 nM; that for `COCc1cccc2cc(C(=O)N[C@@H]3C4CCN(CC4)C3(C)C)sc12` [(R)-143, (R)—N-(2,2-dimethylquinuclidin-3-yl)-7-(methoxymethyl)benzo[b]thiophene-2-carboxamide hydrochloride] was 740 nM. For the compound `O=C(N[C@@H]1C2CCN(CC2)C12CC2)c1cc2ccc(Cl)c(C(F)(F)F)c2s1` [(R)-152, (R)-6-chloro-N-(1′-azaspiro[cyclopropane-1,2′-bicyclo[2.2.2]octan]-3′-yl)-7-(trifluoromethyl)benzo[b]thiophene-2-carboxamide hydrochloride], in experiment [1], the Ki is > 10000 nM.

As to `COc1ccc2cc(C(=O)N[C@@H]3C4CCN(CC4)C34CC4)sc2c1Cl` [(R)-154, (R)-7-chloro-6-methoxy-N-(1′-azaspiro[cyclopropane-1,2′-bicyclo[2.2.2]octan]-3′-yl)benzo[b]thiophene-2-carboxamide hydrochloride], in experiment [1], the Ki was 6200 nM. As for `N#Cc1cccc2cc(C(=O)N[C@@H]3C4CCN(CC4)C34CC4)sc12` [(R)-160, (R)-7-cyano-N-(1′-azaspiro[cyclopropane-1,2′-bicyclo[2.2.2]octan]-3′-yl)benzo[b]thiophene-2-carboxamide hydrochloride], in experiment [1], the Ki turned out to be 260 nM. `O=C(N[C@@H]1C2CCN(CC2)C12CC2)c1cc2cccc(C3CC3)c2s1` [(R)-165, (R)-7-cyclopropyl-N-(1′-azaspiro[cyclopropane-1,2′-bicyclo[2.2.2]octan]-3′-yl)benzo[b]thiophene-2-carboxamide hydrochloride]: in experiment [1], the Ki is 200 nM. Same read-out and setting: the value for `CC(C)c1cccc2cc(C(=O)N[C@@H]3C4CCN(CC4)C34CC4)sc12` [(R)-166, (R)-7-isopropyl-N-(1′-azaspiro[cyclopropane-1,2′-bicyclo[2.2.2]octan]-3′-yl)benzo[b]thiophene-2-carboxamide hydrochloride] was 325 nM; that for `O=C(N[C@@H]1C2CCN(CC2)C12CC2)c1cc2cccc(OC(F)(F)F)c2s1` [(R)-167, (R)—N-(1′-azaspiro[cyclopropane-1,2′-bicyclo[2.2.2]octan]-3′-yl)-7-(trifluoromethoxy)benzo[b]thiophene-2-carboxamide hydrochloride] was 895 nM; that for `O=C(N[C@@H]1C2CCN(CC2)C12CC2)c1cc2ccccc2[nH]1` [(R)-170, (R)—N-(1′-azaspiro[cyclopropane-1,2′-bicyclo[2.2.2]octan]-3′-yl)-1H-indole-2-carboxamide hydrochloride] was 800 nM.

As for `O=C(N[C@@H]1C2CCN(CC2)C12CC2)c1cc2cc(F)c(Cl)cc2s1` [(R)-172, (R)-6-chloro-5-fluoro-N-(1′-azaspiro[cyclopropane-1,2′-bicyclo[2.2.2]octan]-3′-yl)benzo[b]thiophene-2-carboxamide hydrochloride], the inhibition constant (Ki) in experiment [1] was 4900 nM. Turning to `COc1cc2sc(C(=O)N[C@@H]3C4CCN(CC4)C34CC4)cc2cc1F` [(R)-173, (R)-5-fluoro-6-methoxy-N-(1′-azaspiro[cyclopropane-1,2′-bicyclo[2.2.2]octan]-3′-yl)benzo[b]thiophene-2-carboxamide hydrochloride], the inhibition constant (Ki) in experiment [1] was > 10000 nM.

For the compound `O=C(N[C@@H]1C2CCN(CC2)C12CC2)c1cc2cc(F)c(Cl)c(F)c2s1` [(R)-175, (R)-6-chloro-5,7-difluoro-N-(1′-azaspiro[cyclopropane-1,2′-bicyclo[2.2.2]octan]-3′-yl)benzo[b]thiophene-2-carboxamide hydrochloride], in experiment [1], the inhibition constant Ki is > 10000 nM. The same measure, in the same setting: the value for `Cc1cccc2cc(C(=O)N[C@@H]3C4CCN(CC4)C34CC4)sc12` [(R)-176, (R)-7-methyl-N-(1′-azaspiro[cyclopropane-1,2′-bicyclo[2.2.2]octan]-3′-yl)benzo[b]thiophene-2-carboxamide hydrochloride] was 130 nM.

On to `O=C(N[C@@H]1C2CCN(CC2)C12CC2)c1cc2cccc(CC(F)(F)F)c2s1` [(R)-177, (R)—N-(1′-azaspiro[cyclopropane-1,2′-bicyclo[2.2.2]octan]-3′-yl)-7-(2,2,2-trifluoroethyl)benzo[b]thiophene-2-carboxamide hydrochloride], for which the Ki in experiment [1] worked out at 690 nM. Turning to `CN(C)c1cccc2cc(C(=O)N[C@@H]3C4CCN(CC4)C34CC4)sc12` [(R)-178, (R)-7-(dimethylamino)-N-(1′-azaspiro[cyclopropane-1,2′-bicyclo[2.2.2]octan]-3′-yl)benzo[b]thiophene-2-carboxamide hydrochloride], the inhibition constant Ki in experiment [1] turned out to be 400 nM. Same read-out and setting: the value for `O=C(N[C@@H]1C2CCN(CC2)C12CC2)c1cc2cccc(-c3nccs3)c2s1` [(R)-181, (R)—N-(1′-azaspiro[cyclopropane-1,2′-bicyclo[2.2.2]octan]-3′-yl)-7-(thiazol-2-yl)benzo[b]thiophene-2-carboxamide hydrochloride] was 83 nM. `O=C(N[C@@H]1C2CCN(CC2)C12CC2)c1ccc2oc(C3CC3)cc2c1` [(R)-183, (R)-2-cyclopropyl-N-(1′-azaspiro[cyclopropane-1,2′-bicyclo[2.2.2]octan]-3′-yl)benzofuran-5-carboxamide hydrochloride]: in experiment [1], the inhibition constant Ki was > 10000 nM. Still for that read-out and setting: the value for `CC(C)(C)c1cccc2cc(C(=O)N[C@@H]3C4CCN(CC4)C34CC4)sc12` [(R)-184, (R)-7-(tert-butyl)-N-(1′-azaspiro[cyclopropane-1,2′-bicyclo[2.2.2]octan]-3′-yl)benzo[b]thiophene-2-carboxamide hydrochloride] was 110 nM; that for `O=C(N[C@@H]1C2CCN(CC2)C12CC2)c1cc2cccc(-c3ccccc3)c2s1` [(R)-186, (R)-7-phenyl-N-(1′-azaspiro[cyclopropane-1,2′-bicyclo[2.2.2]octan]-3′-yl)benzo[b]thiophene-2-carboxamide hydrochloride] was 30 nM. For `O=C(N[C@H]1C2CCN(CC2)C12CC2)c1cnn2ncccc12` [(S)-80, (S)—N-(1′-azaspiro[cyclopropane-1,2′-bicyclo[2.2.2]octan]-3′-yl)pyrazolo[1,5-b]pyridazine-3-carboxamide hydrochloride], the “% ACh @ 10 μM Oocyte” value in experiment [2] came out at 2 % ACh.

Turning to `O=C(N[C@H]1C2CCN(CC2)C12CC2)c1cc2cccnc2s1` [(S)-81, (S)—N-(1′-azaspiro[cyclopropane-1,2′-bicyclo[2.2.2]octan]-3′-yl)thieno[2,3-b]pyridine-2-carboxamide hydrochloride], in experiment [2], the “% ACh @ 10 μM Oocyte” value came to 1 % ACh. On to `O=C(N[C@H]1C2CCN(CC2)C12CC2)c1nc2ccccc2s1` [(S)-82, (S)—N-(1′-azaspiro[cyclopropane-1,2′-bicyclo[2.2.2]octan]-3′-yl)benzo[d]thiazole-2-carboxamide hydrochloride], for which the “% ACh @ 10 μM Oocyte” value in experiment [2] came to 2 % ACh. With “(R)-N-(2,2-dimethylquinuclidin-3-yl)-6-(trifluoromethoxy)benzo[b]thiophene-2-carboxamide hydrochloride [(R)-209]”, in experiment [2], the “% ACh @ 10 μM Oocyte” value was found to be 1 % ACh.

The Ki is a measure of affinity in units of concentration, obtained from inhibition or displacement.

The values are drawn from patent US10183938B2, “Geminal substituted quinuclidine amide compounds as agonists of α-7 nicotonic acetylcholine receptors” (AXOVANT SCIENCES GMBH, priority 2014, dated 2019).
